Legend:
[1] = tested on: Winter wheat (cultivar Türkis); assay: Crop yield in winter wheat after seed treatment (field trial); type: in vivo; conditions: seed treatment 50 ml/100 kg seeds (Regent FS 500, 25 g per 100 kg seeds), harvest 269 days after planting
Excerpt: (§1) The N-min analysis method used in the examples determines the content of mineral nitrogen compounds in the soil (0-90 cm depth) at the beginning of the vegetative period. For this purpose, samples are taken in a depth of 0 to 90 cm and mineral nitrogen compounds (ammonium compounds and nitrates) are extracted and analyzed. The method is described in R. Thun et al., “Die Untersuchung von Böden, Methodenbuch Bd. 1, 4th edition 1991, edition VDLUFA (Verband Deutscher Landwirtschaftlicher Untersuchungs- and Forschungsanstalten), Darmstadt, Germany.
Winter wheat seeds (cultivar Türkis) were treated with fipronil (used as commercially available product Regent FS 500; an FS formulation containing 500 g/l of active ccompound; 25 g per 100 kg seeds) in a HEGE 11 seed treatment apparatus. A part of the seeds remained untreated (control). Two days after the treatment, the seeds were planted in Böhl, Palatine, Germany, in a loamy sand with a pH of 6.7, and a tilling depth of 30 cm. Nitrogen content following N-min analysis was 26 kg N per ha in 0 to 90 cm depth. 400 seeds per m^2 were sown in 1.86 m by 5.5 m plots. Row spacing was 13 cm and seeding depth 3 cm. The treatments were supplied with either standard amount of nitrogen (180 kg N/ha) or reduced amount of nitrogen (50 kg N/ha). 269 days after planting, the wheat grains were harvested and weighed.

[2] = tested on: Spring wheat (cultivar Triso); assay: Crop yield increase in spring wheat after seed treatment (field trial); type: in vivo; conditions: seed treatment 100 ml/100 kg seeds (Regent FS 500, 50 g per 100 kg seeds), harvest 130 days after planting
Excerpt: as §1
Spring wheat seeds (cultivar Triso) were treated with fipronil (used as commercially available product Regent FS 500; an FS formulation containing 500 g/l of active compound; 50 g per 100 kg seeds) in a HEGE 11 seed treatment apparatus. A part of the seeds remained untreated (control). Five days after the treatment, the seeds were planted near Gommersheim, Palatine, Germany, in a loamy sand with a pH of 6.7, and a tilling depth of 30 cm. Nitrogen content following N-min analysis was 52 kg N per ha in 0 to 90 cm depth. 400 seeds per m^2 were sown in 1.86 m by 5.5 m plots. Row spacing was 13 cm and seeding depth 3 cm. The treatments were supplied with either standard amount of nitrogen (140 kg N/ha) or reduced amount of nitrogen (30 kg N/ha). 130 days after planting, the wheat grains were harvested and weighed.

## N#Cc1nn(-c2c(Cl)cc(C(F)(F)F)cc2Cl)c(N)c1[S+]([O-])C(F)(F)F (stereo not shown) [fipronil]
[1]; reduced nitrogen (50 kg N/ha), control 82.6
  Crop yield: 86.1 dt/ha
[1]; standard nitrogen (180 kg N/ha), control 87.4
  Crop yield: 87.4 dt/ha
[2]; reduced nitrogen (30 kg N/ha), control 47.0
  Crop yield: 51.4 dt/ha
[2]; standard nitrogen (140 kg N/ha), control 62.8
  Crop yield: 63.2 dt/ha

Source: US20110098332A1, “Insecticides for Increasing the Crop Yield” (BASF SE, priority 2007, published 2011)
